Test results taken from US20140288043A1, “PYRAZOLOPYRIDINE COMPOUNDS” (Genentech, Inc., priority 2013, published 2014).

Target: LRRK2 (Homo sapiens, UniProt Q5S007)
Assay: LRRK2 protein kinase assay ([γ-33P] ATP, peptide substrate), KI values of Table 1
Format: biochemical
Settings: LRRK2 affinity values
Description: All LRRK2 protein kinases were of human origin and were sourced from Invitrogen Corporation (Carlsbad, Calif. 92008 USA) unless otherwise indicated. The active mutant used was recombinant human, catalytic domain (amino acids 970-2527) containing a G2019S mutation, GST-tagged, expressed in insect cells (Invitrogen Cat#PV4881). The wild type used was recombinant human, catalytic domain (amino acids 970-2527) GST-tagged, expressed in insect cells (Invitrogen Cat#PV4873). The kinase dead mutant used was recombinant human, catalytic domain (amino acids 970-2527) containing a D1994A mutation, GST-tagged, expressed in insect cells (Invitrogen Cat#PM4041AE). No special measures were taken to activate any of the kinases.
All assays were carried out at room temperature (˜21° C.) and were linear with respect to time and enzyme concentration under the conditions used. Assays were performed for 180 min in a 96 well format. LRRK2 was present at a concentration of approximately 5 nM. The enzyme was diluted and assayed in 50 mM Tris-HCl pH7.5, 0.1 mM EGTA, 1 mM DTT and 10 mM MgCl2. The concentration of magnesium chloride in the assay was 10 mM. The [γ-33P] ATP (0.4 μCi/well) was used at 134 uM for G2019S mutant and at 57 μM for the wild type kinase in order to be at Km. The peptide substrate in the assay was […] at 100 μM.
The assays were initiated with Mg/ATP and stopped by the addition of 25 μl/well 50% orthophosphoric acid. Reactions were harvested onto Whatman P81 Unifilter Plates (Fisher Scientific. Loughborough, LE115RG, UK. Cat# FDU-105-020U) using a Tomtec harvester. (Tomtec Hamden, Conn. 06514. USA) Plates were counted using a Perkin Elmer Top Count NX7. (Perkin Elmer, Shelton Conn. 06484-4794 USA)
IC50 values of inhibitors were determined after carrying out assays at 10 different concentrations of each compound in duplicate.

LRRK2, sequence (Q5S007 whole entry G2019S, form open): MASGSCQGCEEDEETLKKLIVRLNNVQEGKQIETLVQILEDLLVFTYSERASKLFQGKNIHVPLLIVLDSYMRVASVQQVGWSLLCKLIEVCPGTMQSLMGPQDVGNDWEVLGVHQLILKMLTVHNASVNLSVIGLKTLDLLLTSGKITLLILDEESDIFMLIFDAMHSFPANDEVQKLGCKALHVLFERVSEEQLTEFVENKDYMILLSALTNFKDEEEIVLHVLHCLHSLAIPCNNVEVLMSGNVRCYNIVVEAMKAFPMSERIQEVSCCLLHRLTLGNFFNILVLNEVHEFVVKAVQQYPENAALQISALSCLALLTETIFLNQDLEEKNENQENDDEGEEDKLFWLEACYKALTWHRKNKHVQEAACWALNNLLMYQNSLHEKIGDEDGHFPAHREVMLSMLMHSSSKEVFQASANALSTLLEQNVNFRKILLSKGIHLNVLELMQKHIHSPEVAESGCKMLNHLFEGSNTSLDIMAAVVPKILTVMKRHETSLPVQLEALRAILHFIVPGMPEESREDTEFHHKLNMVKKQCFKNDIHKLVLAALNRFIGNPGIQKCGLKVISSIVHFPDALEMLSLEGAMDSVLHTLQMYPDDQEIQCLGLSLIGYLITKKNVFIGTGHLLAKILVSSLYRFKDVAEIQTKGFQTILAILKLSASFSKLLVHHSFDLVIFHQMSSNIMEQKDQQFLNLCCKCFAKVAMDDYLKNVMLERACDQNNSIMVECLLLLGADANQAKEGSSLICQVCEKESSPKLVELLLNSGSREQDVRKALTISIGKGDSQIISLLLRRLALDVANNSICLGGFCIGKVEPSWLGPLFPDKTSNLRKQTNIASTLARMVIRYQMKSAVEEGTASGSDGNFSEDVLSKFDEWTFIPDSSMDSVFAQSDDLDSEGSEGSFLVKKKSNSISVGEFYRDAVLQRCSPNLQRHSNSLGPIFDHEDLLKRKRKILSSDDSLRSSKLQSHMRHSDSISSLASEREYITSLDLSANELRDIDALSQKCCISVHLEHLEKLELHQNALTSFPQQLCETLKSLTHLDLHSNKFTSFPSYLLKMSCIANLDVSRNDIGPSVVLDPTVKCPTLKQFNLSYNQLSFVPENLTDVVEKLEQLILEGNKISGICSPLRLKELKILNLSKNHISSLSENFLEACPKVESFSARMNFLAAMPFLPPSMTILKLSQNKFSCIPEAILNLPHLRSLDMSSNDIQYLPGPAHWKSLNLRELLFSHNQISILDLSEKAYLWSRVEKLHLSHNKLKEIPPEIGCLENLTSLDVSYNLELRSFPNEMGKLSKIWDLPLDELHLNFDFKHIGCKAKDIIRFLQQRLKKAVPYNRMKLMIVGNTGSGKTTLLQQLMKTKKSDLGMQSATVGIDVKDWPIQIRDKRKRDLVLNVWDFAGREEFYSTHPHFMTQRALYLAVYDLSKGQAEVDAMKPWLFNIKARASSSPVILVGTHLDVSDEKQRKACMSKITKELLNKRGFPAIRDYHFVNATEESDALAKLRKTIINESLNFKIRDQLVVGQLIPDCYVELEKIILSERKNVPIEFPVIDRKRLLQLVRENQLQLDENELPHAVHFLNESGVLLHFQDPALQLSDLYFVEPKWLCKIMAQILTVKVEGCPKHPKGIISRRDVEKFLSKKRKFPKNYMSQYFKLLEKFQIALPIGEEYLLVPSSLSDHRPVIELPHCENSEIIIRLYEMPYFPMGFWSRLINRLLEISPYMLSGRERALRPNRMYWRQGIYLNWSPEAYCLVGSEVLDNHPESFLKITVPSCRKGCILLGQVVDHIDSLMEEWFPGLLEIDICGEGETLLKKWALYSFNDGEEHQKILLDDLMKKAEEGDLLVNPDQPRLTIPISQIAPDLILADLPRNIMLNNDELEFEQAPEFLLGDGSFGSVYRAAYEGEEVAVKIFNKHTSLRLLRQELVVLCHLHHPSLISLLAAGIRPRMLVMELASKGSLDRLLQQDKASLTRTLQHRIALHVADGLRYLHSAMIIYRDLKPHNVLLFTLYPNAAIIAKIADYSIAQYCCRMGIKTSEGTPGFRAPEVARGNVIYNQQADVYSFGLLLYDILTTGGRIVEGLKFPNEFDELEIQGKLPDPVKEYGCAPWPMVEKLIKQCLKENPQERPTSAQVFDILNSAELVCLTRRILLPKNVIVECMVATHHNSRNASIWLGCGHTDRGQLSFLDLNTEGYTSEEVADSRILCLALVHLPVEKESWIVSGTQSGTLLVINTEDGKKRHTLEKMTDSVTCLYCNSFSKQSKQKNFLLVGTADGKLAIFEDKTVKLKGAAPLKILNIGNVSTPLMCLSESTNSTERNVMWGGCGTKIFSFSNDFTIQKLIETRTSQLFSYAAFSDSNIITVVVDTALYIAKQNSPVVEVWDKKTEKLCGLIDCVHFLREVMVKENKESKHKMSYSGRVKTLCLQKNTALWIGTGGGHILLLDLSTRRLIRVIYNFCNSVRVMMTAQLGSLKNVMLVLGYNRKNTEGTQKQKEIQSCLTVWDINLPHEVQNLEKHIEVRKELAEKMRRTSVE

| SMILES | Ki [nM] |
| --- | --- |
| CC(C)S(=O)(=O)c1ccnc(-c2n[nH]c3ccnc(NC4CCOCC4)c23)c1 [Compound 75, 3-(4-(isopropylsulfonyl)pyridin-2-yl)-N-(tetrahydro-2H-pyran-4-yl)-1H-pyrazolo[4,3-c]pyridin-4-amine] | 23.2 |
| CC(C)Nc1nccc2[nH]nc(-c3cc(N4CCOCC4)ccn3)c12 [Compound 3, N-isopropyl-3-(4-morpholinopyridin-2-yl)-1H-pyrazolo[4,3-c]pyridin-4-amine] | 1.6 |
| CC(C)Nc1nccc2[nH]nc(-c3cn(C(C)C)nn3)c12 [Compound 7, N-isopropyl-3-(1-isopropyl-1H-1,2,3-triazol-4-yl)-1H-pyrazolo[4,3-c]pyridin-4-amine] | 4.4 |
| CC(C)Nc1nccc2[nH]nc(-c3cc(C4CCCO4)ccn3)c12 (stereo not shown) [Compound 53, N-isopropyl-3-(4-(tetrahydrofuran-2-yl)pyridin-2-yl)-1H-pyrazolo[4,3-c]pyridin-4-amine] | 4.4 |
